What was measured:
human TLR8 = biological target: T1, human TLR8 (Homo sapiens, UniProt Q9NR97); experiment: HEK293-Blue-hTLR-8 cells assay; format: cell-based; conditions: HEK293-Blue-hTLR8 cells, R848 stimulation, 20 hrs, SEAP reporter; read-out: HEK/hTLR8 IC50
T1 sequence (Q9NR97 27-1041): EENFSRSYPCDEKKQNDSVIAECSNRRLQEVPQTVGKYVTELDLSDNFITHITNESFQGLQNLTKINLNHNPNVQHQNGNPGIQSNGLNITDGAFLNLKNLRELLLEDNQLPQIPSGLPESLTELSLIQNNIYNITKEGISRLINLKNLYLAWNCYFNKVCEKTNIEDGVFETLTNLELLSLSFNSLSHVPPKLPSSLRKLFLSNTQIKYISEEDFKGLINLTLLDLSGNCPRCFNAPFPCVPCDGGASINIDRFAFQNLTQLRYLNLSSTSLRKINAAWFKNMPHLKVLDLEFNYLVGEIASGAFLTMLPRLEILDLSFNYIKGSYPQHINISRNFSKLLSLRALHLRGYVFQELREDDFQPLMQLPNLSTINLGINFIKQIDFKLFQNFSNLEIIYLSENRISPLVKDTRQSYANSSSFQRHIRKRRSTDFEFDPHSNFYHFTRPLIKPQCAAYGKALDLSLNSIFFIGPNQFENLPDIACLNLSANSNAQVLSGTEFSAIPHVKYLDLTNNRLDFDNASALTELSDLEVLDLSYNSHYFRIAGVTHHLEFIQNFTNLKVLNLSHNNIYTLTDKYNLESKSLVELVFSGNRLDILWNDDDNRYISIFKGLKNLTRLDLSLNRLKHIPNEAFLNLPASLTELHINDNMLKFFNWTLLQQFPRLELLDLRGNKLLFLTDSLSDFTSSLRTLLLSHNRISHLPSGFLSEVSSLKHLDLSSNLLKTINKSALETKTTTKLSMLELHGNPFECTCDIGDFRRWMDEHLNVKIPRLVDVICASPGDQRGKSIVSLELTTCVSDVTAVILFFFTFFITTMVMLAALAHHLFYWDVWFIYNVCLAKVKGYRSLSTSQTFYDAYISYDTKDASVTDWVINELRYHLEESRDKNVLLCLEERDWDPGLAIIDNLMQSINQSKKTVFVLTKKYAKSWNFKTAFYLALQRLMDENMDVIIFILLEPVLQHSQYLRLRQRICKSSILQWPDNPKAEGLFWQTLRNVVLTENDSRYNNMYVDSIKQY
Summary of the method: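 Antagonism read out in HEK293-Blue-hTLR8 cells carrying an NF-κB/AP-1-driven SEAP reporter, stimulated with R848 (10 μL of 60 uM stock added) alongside serially diluted compound (1% DMSO), 20 h at 37° C. Supernatant SEAP measured with QUANTI-Blue after 2 h at 37° C, absorbance at 620-655 nm.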

hERG K+ channel = biological target: T2, hERG K+ channel (Homo sapiens, UniProt Q12809); experiment: hERG channel inhibition assay; format: cell-based; conditions: patch-clamp (voltage-clamp, whole-cell); for IC50: CHO cells expressing hERG; for IC20: human, CHO cells stably expressing hERG
T2 construct: expressed in transfected cells; host or cells: CHO (Chinese hamster ovary) cells, CHOhERG
T2 sequence (Q12809 whole entry): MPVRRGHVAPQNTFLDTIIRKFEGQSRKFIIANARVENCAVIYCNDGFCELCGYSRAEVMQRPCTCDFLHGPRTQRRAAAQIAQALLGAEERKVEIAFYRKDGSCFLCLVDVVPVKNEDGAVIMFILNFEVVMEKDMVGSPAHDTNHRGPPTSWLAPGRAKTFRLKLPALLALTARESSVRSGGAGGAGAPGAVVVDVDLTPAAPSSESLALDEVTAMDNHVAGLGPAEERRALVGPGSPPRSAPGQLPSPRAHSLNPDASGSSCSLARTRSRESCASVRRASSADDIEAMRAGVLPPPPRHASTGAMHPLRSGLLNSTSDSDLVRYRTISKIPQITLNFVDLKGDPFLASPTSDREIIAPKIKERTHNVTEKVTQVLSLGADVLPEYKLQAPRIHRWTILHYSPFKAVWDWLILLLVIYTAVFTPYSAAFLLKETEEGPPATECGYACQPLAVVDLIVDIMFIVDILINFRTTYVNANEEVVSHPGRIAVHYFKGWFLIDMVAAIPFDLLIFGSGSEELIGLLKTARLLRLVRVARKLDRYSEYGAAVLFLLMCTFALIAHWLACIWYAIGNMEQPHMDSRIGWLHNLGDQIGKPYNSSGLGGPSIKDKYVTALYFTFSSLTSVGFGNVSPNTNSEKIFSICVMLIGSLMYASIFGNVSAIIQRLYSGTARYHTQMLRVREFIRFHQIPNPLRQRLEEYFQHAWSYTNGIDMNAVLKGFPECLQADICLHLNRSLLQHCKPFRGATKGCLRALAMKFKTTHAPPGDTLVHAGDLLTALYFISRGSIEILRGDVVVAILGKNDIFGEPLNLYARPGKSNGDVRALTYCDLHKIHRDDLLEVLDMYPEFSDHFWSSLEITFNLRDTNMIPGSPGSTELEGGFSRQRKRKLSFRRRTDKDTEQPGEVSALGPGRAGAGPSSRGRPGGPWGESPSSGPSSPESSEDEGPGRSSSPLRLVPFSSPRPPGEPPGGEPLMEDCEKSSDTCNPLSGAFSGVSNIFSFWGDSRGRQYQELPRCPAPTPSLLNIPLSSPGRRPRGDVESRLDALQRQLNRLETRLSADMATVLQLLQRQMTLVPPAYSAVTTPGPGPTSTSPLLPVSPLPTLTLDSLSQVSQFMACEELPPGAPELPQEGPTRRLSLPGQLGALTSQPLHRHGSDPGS
Method: hERG Channel Inhibition Assay
The hERG K^+ channels were cloned in humans and stably expressed in a CHO (Chinese hamster ovary) cell line. CHOhERG cells were used for patch-clamp (voltage-clamp, whole-cell) experiments. Cells were stimulated by a voltage pattern to activate hERG channels and conduct IKhERG currents (rapid delayed outward rectifier potassium current of the hERG channel). After the cells were stabilized for a few minutes, the amplitude and kinetics of IKhERG were recorded at a stimulation frequency of 0.1 Hz (6 bpm). Thereafter, the test compound was added to the preparation at increasing concentrations. For each concentration, an attempt was made to reach a steady-state effect, usually, this was achieved within 3-10 min at which time the next highest concentration was applied. The amplitude and kinetics of IKhERG are recorded in each concentration of the drug which were compared to the control values (taken as 100%). (references: Redfem W S, Carlsson L, Davis A S, Lynch W G, MacKenzie I, Palethorpe S, Siegl P K, Strang I, Sullivan A T, Wallis R, Camm A J, Hammond T G. 2003; Relationships between preclinical cardiac electrophysiology, clinical QT interval prolongation and torsade de pointes for a broad range of drugs: evidence for a provisional safety margin in drug development. Cardiovasc. Res. 58:32-45, Sanguinetti M C, Tristani-Firouzi M. 2006; hERG potassium channels and cardiac arrhythmia. Nature 440:463-469, Webster R, Leishman D, Walker D. 2002; Towards a drug concentration effect relationship for QT prolongation and torsades de pointes. Curr. Opin. Drug Discov. Devel. 5:116-26).

C[C@@H]1CN(c2ccc(C#N)c3ncccc23)CC2c3ccc(N4C[C@H](N)[C@@H](O)C4)cc3CN21 (relative stereo) [Example 21, 5-[(4R,10bS)-8-[trans-3-amino-4-hydroxy-pyrrolidin-1-yl]-4-methyl-3,4,6,10b-tetrahydro-1H-pyrazino[2,1-a]isoindol-2-yl]quinoline-8-carbonitrile]
IC50 (human TLR8): < 0.0032 µM
IC50 (hERG K+ channel): > 20 µM
IC20 (hERG K+ channel): > 10 µM

C[C@@H]1CN(c2ccc(C#N)c3ncccc23)C[C@@H]2c3ccc(N4C[C@@H](N)[C@H](O)C4)cc3CN12 (single isomer, unassigned) [Example 40B]
IC50 (human TLR8): 0.0009 µM
IC50 (hERG K+ channel): > 20 µM
IC20 (hERG K+ channel): > 10 µM

C[C@@H]1CN(c2ccc(C#N)c3ncccc23)C[C@@H]2c3ccc(N4CCN[C@H](CO)C4)cc3CN12 [Example 12, 5-[(4R,10bS)-8-[(3S)-3-(hydroxymethyl)piperazin-1-yl]-4-methyl-3,4,6,10b-tetrahydro-1H-pyrazino[2,1-a]isoindol-2-yl]quinoline-8-carbonitrile]
IC50 (human TLR8): < 0.0032 µM
IC50 (hERG K+ channel): > 20 µM
IC20 (hERG K+ channel): > 10 µM

C[C@@H]1CN(c2ccc(C#N)c3ncccc23)C[C@@H]2c3ccc(N4CC5CNCC(C4)O5)cc3CN12 [Example 14, 5-[(4R,10bS)-4-methyl-8-(9-oxa-3,7-diazabicyclo[3.3.1]nonan-3-yl)-3,4,6,10b-tetrahydro-1H-pyrazino[2,1-a]isoindol-2-yl]quinoline-8-carbonitrile]
IC50 (human TLR8): < 0.0032 µM
IC50 (hERG K+ channel): > 20 µM
IC20 (hERG K+ channel): > 10 µM

C[C@@H]1CN(c2ccc(C#N)c3ncccc23)C[C@@H]2c3ccc(N4CCNCC(O)C4)cc3CN12 (stereo partly drawn) [Example 15, 5-[(4R,10bS)-8-(6-hydroxy-1,4-diazepan-1-yl)-4-methyl-3,4,6,10b-tetrahydro-1H-pyrazino[2,1-a]isoindol-2-yl]quinoline-8-carbonitrile]
IC50 (human TLR8): < 0.0032 µM
IC50 (hERG K+ channel): > 20 µM
IC20 (hERG K+ channel): > 10 µM

C[C@@H]1CN(c2ccc(C#N)c3ncccc23)C[C@@H]2c3ccc(N4CC(N)C4)cc3CN12 [Example 22, 5-[(4R,10bS)-8-(3-aminoazetidin-1-yl)-4-methyl-3,4,6,10b-tetrahydro-1H-pyrazino[2,1-a]isoindol-2-yl]quinoline-8-carbonitrile]
IC50 (human TLR8): < 0.0032 µM
IC50 (hERG K+ channel): > 20 µM
IC20 (hERG K+ channel): 5 µM

C[C@@H]1CN(c2ccc(C#N)c3ncccc23)C[C@@H]2c3ccc(NCCN(C)C)cc3CN12 [Example 26, 5-[(4R,10bS)-8-[2-(dimethylamino)ethylamino]-4-methyl-3,4,6,10b-tetrahydro-1H-pyrazino[2,1-a]isoindol-2-yl]quinoline-8-carbonitrile]
IC50 (human TLR8): < 0.0032 µM
IC50 (hERG K+ channel): > 20 µM
IC20 (hERG K+ channel): 5 µM

C[C@@H]1CN(c2ccc(C#N)c3ncccc23)C[C@@H]2c3ccc(NC4CNC4)cc3CN12 [Example 28, 5-[(4R,10S)-8-(azetidin-3-ylamino)-4-methyl-3,4,6,10b-tetrahydro-1H-pyrazino[2,1-a]isoindol-2-yl]quinoline-8-carbonitrile]
IC50 (human TLR8): < 0.0032 µM
IC50 (hERG K+ channel): > 20 µM
IC20 (hERG K+ channel): > 10 µM

C[C@@H]1CN(c2ccc(C#N)c3ncccc23)C[C@@H]2c3ccc(N4CC5(CNCCO5)C4)cc3CN12 [Example 35, 5-[(4R,10bS)-4-methyl-8-(5-oxa-2,8-diazaspiro[3.5]nonan-2-yl)-3,4,6,10b-tetrahydro-1H-pyrazino[2,1-a]isoindol-2-yl]quinoline-8-carbonitrile]
IC50 (human TLR8): < 0.0032 µM
IC50 (hERG K+ channel): > 20 µM
IC20 (hERG K+ channel): > 10 µM

C[C@@H]1CN(c2ccc(C#N)c3ncccc23)C[C@@H]2c3ccc(N4CC5(CNC5)C4)cc3CN12 [Example 36, 5-[(4R,10bS)-8-(2,6-diazaspiro[3.3]heptan-2-yl)-4-methyl-3,4,6,10b-tetrahydro-1H-pyrazino[2,1-a]isoindol-2-yl]quinoline-8-carbonitrile]
IC50 (human TLR8): < 0.0032 µM
IC50 (hERG K+ channel): > 20 µM
IC20 (hERG K+ channel): > 10 µM

Reference: US12157746B2, “Tetrahydro-1H-pyrazino[2,1-a]isoindolylquinoline compounds for the treatment of autoimmune disease” (F. HOFFMANN-LA ROCHE AG, priority 2018, dated 2024)
